One experiment addresses T1, human TRPC6 (Homo sapiens, UniProt Q9Y210).
T1 construct: expressed in transfected cells; host or cells: HEK 293
T1 sequence (Q9Y210 1-931): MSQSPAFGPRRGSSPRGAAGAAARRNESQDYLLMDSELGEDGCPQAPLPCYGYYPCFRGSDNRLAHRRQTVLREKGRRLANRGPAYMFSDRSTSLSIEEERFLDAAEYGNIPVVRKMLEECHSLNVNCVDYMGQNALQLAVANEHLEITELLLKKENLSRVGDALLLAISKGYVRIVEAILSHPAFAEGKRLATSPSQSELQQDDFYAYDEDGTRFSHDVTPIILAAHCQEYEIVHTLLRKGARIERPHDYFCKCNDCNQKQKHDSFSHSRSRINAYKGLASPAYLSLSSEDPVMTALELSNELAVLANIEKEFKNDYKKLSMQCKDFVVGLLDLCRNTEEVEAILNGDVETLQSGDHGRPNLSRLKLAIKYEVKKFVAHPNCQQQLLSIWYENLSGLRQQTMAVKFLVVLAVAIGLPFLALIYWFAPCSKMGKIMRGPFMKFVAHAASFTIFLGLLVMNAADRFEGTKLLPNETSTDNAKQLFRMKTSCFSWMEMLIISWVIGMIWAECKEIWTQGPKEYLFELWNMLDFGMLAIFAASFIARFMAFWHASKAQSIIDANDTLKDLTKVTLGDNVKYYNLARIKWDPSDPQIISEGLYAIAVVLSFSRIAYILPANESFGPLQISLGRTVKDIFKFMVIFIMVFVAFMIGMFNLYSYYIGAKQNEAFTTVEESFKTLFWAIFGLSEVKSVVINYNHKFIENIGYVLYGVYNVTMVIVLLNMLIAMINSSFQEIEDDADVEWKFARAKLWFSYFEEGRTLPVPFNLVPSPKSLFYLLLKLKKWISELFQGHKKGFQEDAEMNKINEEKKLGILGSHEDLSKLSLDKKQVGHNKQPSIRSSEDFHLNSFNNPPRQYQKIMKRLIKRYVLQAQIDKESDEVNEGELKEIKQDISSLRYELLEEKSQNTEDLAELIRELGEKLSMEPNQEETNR
In words: TRPC6 fluorescence-based assay (Ca2+ flux assay in FLIPR format), cells overexpressing TRPC6. To be noted: 5 μM of test compound, following Carbachol stimulation. It counts as cell-based.

For a further experiment, the target named is T2, human TRPC5 (Homo sapiens, UniProt Q9UL62).
T2 construct: expressed in transfected cells; host or cells: HEK 293
T2 sequence (Q9UL62 1-973): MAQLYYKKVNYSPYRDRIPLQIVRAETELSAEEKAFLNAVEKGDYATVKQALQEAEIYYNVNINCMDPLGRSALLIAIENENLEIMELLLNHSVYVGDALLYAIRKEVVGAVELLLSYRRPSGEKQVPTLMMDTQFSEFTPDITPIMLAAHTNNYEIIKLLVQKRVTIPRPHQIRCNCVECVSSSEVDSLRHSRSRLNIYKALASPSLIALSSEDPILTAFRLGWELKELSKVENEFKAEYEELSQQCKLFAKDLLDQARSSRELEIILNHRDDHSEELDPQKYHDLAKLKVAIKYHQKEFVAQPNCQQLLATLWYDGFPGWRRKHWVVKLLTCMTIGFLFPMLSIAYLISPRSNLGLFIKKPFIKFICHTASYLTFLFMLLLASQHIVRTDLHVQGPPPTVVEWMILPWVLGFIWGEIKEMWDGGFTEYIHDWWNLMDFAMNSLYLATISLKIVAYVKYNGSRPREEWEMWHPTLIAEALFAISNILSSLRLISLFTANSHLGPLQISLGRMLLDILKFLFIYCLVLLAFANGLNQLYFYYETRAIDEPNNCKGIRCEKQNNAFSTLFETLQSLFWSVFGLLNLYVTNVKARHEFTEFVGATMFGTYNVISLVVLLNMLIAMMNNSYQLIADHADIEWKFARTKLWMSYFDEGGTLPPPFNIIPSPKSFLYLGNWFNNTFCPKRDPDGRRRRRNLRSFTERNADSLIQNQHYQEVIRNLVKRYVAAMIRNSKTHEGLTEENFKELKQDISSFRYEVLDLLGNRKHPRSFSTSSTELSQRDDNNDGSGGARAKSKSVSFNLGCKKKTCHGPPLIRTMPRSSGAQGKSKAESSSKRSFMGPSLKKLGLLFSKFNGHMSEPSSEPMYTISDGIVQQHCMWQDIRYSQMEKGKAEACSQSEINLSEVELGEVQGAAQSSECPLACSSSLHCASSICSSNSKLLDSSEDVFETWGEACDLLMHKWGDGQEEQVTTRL
In words: TRPC5 fluorescence-based assay (Ca2+ flux assay in FLIPR format), cells overexpressing TRPC5. To be noted: 5 μM of test compound, following Carbachol stimulation. Type of experiment: cell-based.

As to `CCn1c(NCc2ccc(Br)cc2)nc2ccccc21`, the figures for the inhibition at 5 µM against human TRPC6 and against human TRPC5 were 77.3% and 71.6%, respectively.

On to `CCCn1c(-c2ccc(Br)cc2)nc2ccccc21`, for which the results for the inhibition at 5 µM at human TRPC6 and at human TRPC5 were 82.8% and 61.4%, respectively.

Turning to `CCN(CC)CCn1c(NCc2ccc(OC)cc2OC)nc2ccccc21`, the inhibition at 5 µM on human TRPC6 was determined as 43.5%; against human TRPC5, 60.9%.

Turning to `COCc1ccccc1Cn1cnc2ccccc21`, the inhibition at 5 µM against human TRPC6 came to 83.5%; against human TRPC5 it was 61.3%.

Turning to `CC(C)(C)C(=O)NCCc1nc2ccccc2n1Cc1ccc(Cl)cc1`, the inhibition at 5 µM against human TRPC6 is -7.07%; at human TRPC5 it was 38.9%.

Turning to `CCN(CC)CCn1c(NCc2ccc(Cl)cc2)nc2ccccc21`, the inhibition at 5 µM against human TRPC6 came to 57.1%; at human TRPC5, 62%.

For `CCC(=O)NCCc1nc2ccccc2n1Cc1ccc(F)cc1`, the inhibition at 5 µM came out at 2.78% on human TRPC6 and 27% against human TRPC5.

On to `CCCCn1c(NCc2cccs2)nc2ccccc21` [drawing 80], for which the inhibition at 5 µM on human TRPC6 turned out to be 81.3%; against human TRPC5, 66.1%.

As for `Cn1c(CC(O)c2ccccc2)nc2ccccc21` (centres unmarked), the inhibition at 5 µM against human TRPC6 is -9.99%; on human TRPC5, 42.3%.

As for `Fc1cccc(Cl)c1Cn1c(-c2ccco2)nc2ccccc21`, the inhibition at 5 µM came to 61.7% against human TRPC6 and 47.9% against human TRPC5.

Take `CCn1c(NC2CCCCC2)nc2ccccc21`: the results for the inhibition at 5 µM against human TRPC6 and at human TRPC5 were 9.58% and 55.5%, respectively.

Take `Cc1ccc(Cn2c(C(C)(C)C)nc3ccccc32)cc1`: the inhibition at 5 µM against human TRPC6 was found to be 27.7%; at human TRPC5, 39.7%.

For `CCCn1c(NCc2ccc(N(CC)CC)cc2)nc2ccccc21`, the inhibition at 5 µM on human TRPC6 amounted to 74.7%; on human TRPC5 it was 64.9%.

In the case of `CCOc1ccccc1Nc1nc2ccccc2n1C(C)C`, the inhibition at 5 µM against human TRPC6 was found to be 40.7%; on human TRPC5, 45.1%.

Take `Cc1ccccc1Cn1c(C2CC2)nc2ccccc21`: the inhibition at 5 µM against human TRPC6 stood at 45.3%; on human TRPC5, 35.5%.

In the case of `COc1ccccc1NC(=O)Cn1c(C)nc2ccccc21`, the inhibition at 5 µM on human TRPC6 amounted to 84.1%; against human TRPC5, 72.7%.

`COc1ccc(/C=N/c2nc3ccccc3n2Cc2ccccc2)cc1OC`: the inhibition at 5 µM was determined as 90.5% at human TRPC6 and 74.3% on human TRPC5.

On to `CCn1c(NCc2ccccc2O)nc2ccccc21`, for which the inhibition at 5 µM is -8.69% at human TRPC6 and 50% at human TRPC5.

Consider `Cc1ccc(NC(=O)Cn2c(C)nc3ccccc32)cc1`, for which the inhibition at 5 µM stood at 81.8% on human TRPC6 and 32.1% against human TRPC5.

`O=C(Cn1c(NCCCO)nc2ccccc21)C12CC3CC(CC(C3)C1)C2`: the inhibition at 5 µM at human TRPC6 is 28.4%; against human TRPC5, 58.2%.

On to `C=CCn1c(NCc2cccs2)nc2ccccc21`, for which the inhibition at 5 µM against human TRPC6 was determined as 14.6%; against human TRPC5, 50.7%.

On to `Cc1ccc(Cn2c(CN3CCC(CN)C3)nc3ccccc32)cc1` (centres unmarked), for which the inhibition at 5 µM on human TRPC6 came out at 51%; on human TRPC5, 51.8%.

As to `c1ccc(Cc2nc3ccccc3n2CCOc2ccccc2)cc1`, the inhibition at 5 µM at human TRPC6 turned out to be 17.7%; against human TRPC5, 36.7%.

With `COc1ccc(Cc2nc3ccccc3n2C(C)c2ccccc2)cc1` (centres unmarked), the inhibition at 5 µM at human TRPC6 came to 45%; against human TRPC5 it was 51%.

Consider `CCn1c(Cc2ccc(OC)c(OC)c2)nc2ccccc21`, for which the results for the inhibition at 5 µM at human TRPC6 and against human TRPC5 were 94% and 59%, respectively.

As for `CCN(CC)c1ccc(CNc2nc3ccccc3n2CCN2CCCCC2)cc1`, the inhibition at 5 µM was 65.7% against human TRPC6 and 61.2% on human TRPC5.

On to `Cn1c(=O)c2c(ncn2CC(=O)OCCCC(c2ccc(F)cc2)c2ccc(F)cc2)n(C)c1=O`, for which the inhibition at 5 µM worked out at 60.7% against human TRPC6 and 60% against human TRPC5.

`Cc1nc2ccccc2n1CC(=O)Nc1ccc(Cl)cc1`: the inhibition at 5 µM against human TRPC6 is 70%; against human TRPC5 it was 39.7%.

Take `c1ccc(Cc2nc3ccccc3n2CCCOc2ccccc2)cc1`: the inhibition at 5 µM came out at 92.5% against human TRPC6 and 85.9% on human TRPC5.

With `COc1ccc(CCN2CCC(Nc3nc4ccccc4n3CCc3ccc(OC)cc3)CC2)cc1`, the inhibition at 5 µM at human TRPC6 came out at 68.9%; against human TRPC5 it was 63.3%.

In the case of `CCCCCCn1c(NCc2ccccc2O)nc2ccccc21`, the inhibition at 5 µM was found to be 21.9% against human TRPC6 and 61.3% against human TRPC5.

(Values after patent publication US20200377505A1, “BENZIMIDAZOLES AND AZA-BENZIMIDAZOLES, AND METHODS OF USE THEREOF” (Goldfinch Bio., Inc., priority 2017, published 2020).)
